Tested on: individuals diagnosed with schizophrenia
Assay: Change in PANSS-N subscale by SNP genotype, patients on iloperidone 24 mg/day b.i.d. for 28 days (MMRM)
Type: in vivo, human
Excerpt: Earlier studies investigated an association between a polymorphism in the CNTF gene and iloperidone efficacy as well as associations between CYP2D6 and KCNQ1 genotypes and changes in QT interval following the administration of iloperidone. The present study involved the genotyping of DNA samples collected from 426 individuals diagnosed with schizophrenia in an attempt to identify additional SNPs associated with iloperidone efficacy. Each sample was genotyped at more than 500,000 SNP loci using the GeneChip® Human Mapping 500K Array Set (Affymetrix, Santa Clara, Calif.) and using assays developed in-house. Approximately half of the participants in the study were administered 24 mg/day of iloperidone, b.i.d., for 28 days. About 25% of the patients were administered ziprasidone. The remaining participants were administered a placebo. Three analyses of the PANSS-T were conducted. 1) A two-step approach where samples were randomly split into 2 groups of iloperidone-treated patients used to discover SNPs associated with changed in PANSS-T (Discovery phase) and a second group to confirm the 100 most significant SNPs (Confirmatory phase). 2) A one-step approach using the Last Observation Carried Forward (LOCF) PANSS-T data of all iloperidone-treated patients. For each SNP, the most parsimonious genetic model (e.g., homozygous for one allele v. all other genotypes [i.e., AA v. AB and BB], heterozygous v. homozygous [i.e., AB v. AA and BB]) was established with respect to iloperidone efficacy using a one-way analysis of variance (ANOVA). 3) A Mixed-effects Model Repeated Measures (MMRM) analysis was subsequently conducted using the best genetic model of each SNP in the MMRM model. MMRM analyses were also conducted with the PANSS subscales PANSS-P, PANSS-N, and PANSS-GP. The SNPs with a statistically significant association in all 3 analyses of PANSS-T, as well as the best of each analysis were considered significant findings and are listed below in Table 1. Results for each of these SNPs with the PANSS-T scales and with the three subscales PANSS-P, PANSS-N, and PANSS-GP are shown in Tables 2, 3, 4, and 5, respectively. […] In the present case of iloperidone efficacy, it is likely that different markers are more specifically associated with one or a few specific clinical symptoms, which is reflected in the improvement measured in separate subscales.

COc1cc(C(C)=O)ccc1OCCCN1CCC(c2noc3cc(F)ccc23)CC1 [iloperidone, 1-[4-[3-[4-(6-fluoro-1,2-benzisoxazol-3-yl)-1-piperidinyl]propoxy]-3-methoxyphenyl]ethanone]
mean of change in PANSS-N (SNP_A-1819750 (CREG1) genotype A_A): −5.35 | mean of change in PANSS-N (SNP_A-1819750 (CREG1) genotype A_B* (lowest response)): −2.01 | mean of change in PANSS-N (SNP_A-1819750 (CREG1) genotype B_B): −4.01 | mean of change in PANSS-N (SNP_A-1819750 (CREG1) genotype nonAB** (highest response)): −4.45 | mean of change in PANSS-N (SNP_A-1860353 (RAP1B) genotype A_A** (highest response)): −11.00 | mean of change in PANSS-N (SNP_A-1860353 (RAP1B) genotype A_B): −2.29 | mean of change in PANSS-N (SNP_A-1860353 (RAP1B) genotype B_B): −2.73 | mean of change in PANSS-N (SNP_A-1860353 (RAP1B) genotype nonAA* (lowest response)): −2.65 | mean of change in PANSS-N (SNP_A-1934663 genotype A_A): −3.38 | mean of change in PANSS-N (SNP_A-1934663 genotype A_B): −3.94 | mean of change in PANSS-N (SNP_A-1934663 genotype B_B* (lowest response)): −2.06 | mean of change in PANSS-N (SNP_A-1934663 genotype nonBB** (highest response)): −3.82 | mean of change in PANSS-N (SNP_A-1973093 (KIAA0040) genotype A_A): −3.32 | mean of change in PANSS-N (SNP_A-1973093 (KIAA0040) genotype A_B* (lowest response)): −1.85 | mean of change in PANSS-N (SNP_A-1973093 (KIAA0040) genotype B_B): −3.46 | mean of change in PANSS-N (SNP_A-1973093 (KIAA0040) genotype nonAB** (highest response)): −3.43 | mean of change in PANSS-N (SNP_A-1975928 (SLC2A9) genotype A_A): −2.87 | mean of change in PANSS-N (SNP_A-1975928 (SLC2A9) genotype A_B): −2.95 | mean of change in PANSS-N (SNP_A-1975928 (SLC2A9) genotype B_B* (lowest response)): 0.62 | mean of change in PANSS-N (SNP_A-1975928 (SLC2A9) genotype nonBB** (highest response)): −2.89 | mean of change in PANSS-N (SNP_A-1987915 (GPR126) genotype A_A): −1.91 | mean of change in PANSS-N (SNP_A-1987915 (GPR126) genotype A_B): −2.03 | mean of change in PANSS-N (SNP_A-1987915 (GPR126) genotype B_B** (highest response)): −4.28 | mean of change in PANSS-N (SNP_A-1987915 (GPR126) genotype nonBB* (lowest response)): −2.00 | mean of change in PANSS-N (SNP_A-2007721 (LOC58486) genotype A_A): 0.51 | mean of change in PANSS-N (SNP_A-2007721 (LOC58486) genotype A_B** (highest response)): −4.73 | mean of change in PANSS-N (SNP_A-2007721 (LOC58486) genotype B_B): −2.33 | mean of change in PANSS-N (SNP_A-2007721 (LOC58486) genotype nonAB* (lowest response)): −2.31 | mean of change in PANSS-N (SNP_A-2044214 (HNT) genotype A_A): −3.32 | mean of change in PANSS-N (SNP_A-2044214 (HNT) genotype A_B* (lowest response)): −2.16 | mean of change in PANSS-N (SNP_A-2044214 (HNT) genotype B_B): −3.05 | mean of change in PANSS-N (SNP_A-2044214 (HNT) genotype nonAB** (highest response)): −3.22 | mean of change in PANSS-N (SNP_A-2048427 (NPAS3) genotype A_A): −4.12 | mean of change in PANSS-N (SNP_A-2048427 (NPAS3) genotype A_B): −4.30 | mean of change in PANSS-N (SNP_A-2048427 (NPAS3) genotype B_B* (lowest response)): −2.27 | mean of change in PANSS-N (SNP_A-2048427 (NPAS3) genotype nonBB** (highest response)): −4.28 | mean of change in PANSS-N (SNP_A-2070454 (NKX2-5) genotype A_A): −1.86 | mean of change in PANSS-N (SNP_A-2070454 (NKX2-5) genotype A_B): −2.40 | mean of change in PANSS-N (SNP_A-2070454 (NKX2-5) genotype B_B** (highest response)): −4.58 | mean of change in PANSS-N (SNP_A-2070454 (NKX2-5) genotype nonBB* (lowest response)): −2.23 | mean of change in PANSS-N (SNP_A-2076797 (NUDT9P1) genotype A_A): −1.75 | mean of change in PANSS-N (SNP_A-2076797 (NUDT9P1) genotype A_B** (highest response)): −4.06 | mean of change in PANSS-N (SNP_A-2076797 (NUDT9P1) genotype B_B): −1.62 | mean of change in PANSS-N (SNP_A-2076797 (NUDT9P1) genotype nonAB* (lowest response)): −1.69 | mean of change in PANSS-N (SNP_A-2103099 (HTR1A) genotype A_A): −4.08 | mean of change in PANSS-N (SNP_A-2103099 (HTR1A) genotype A_B* (lowest response)): −2.09 | mean of change in PANSS-N (SNP_A-2103099 (HTR1A) genotype B_B): −3.40 | mean of change in PANSS-N (SNP_A-2103099 (HTR1A) genotype nonAB** (highest response)): −3.65 | mean of change in PANSS-N (SNP_A-2120958 genotype A_A): −3.15 | mean of change in PANSS-N (SNP_A-2120958 genotype A_B): −2.84 | mean of change in PANSS-N (SNP_A-2120958 genotype B_B* (lowest response)): −1.11 | mean of change in PANSS-N (SNP_A-2120958 genotype nonBB** (highest response)): −3.03 | mean of change in PANSS-N (SNP_A-2170121 (C6) genotype A_A): −2.14 | mean of change in PANSS-N (SNP_A-2170121 (C6) genotype A_B** (highest response)): −4.78 | mean of change in PANSS-N (SNP_A-2170121 (C6) genotype B_B): −2.52 | mean of change in PANSS-N (SNP_A-2170121 (C6) genotype nonAB* (lowest response)): −2.17 | mean of change in PANSS-N (SNP_A-2274533 (LZTS1) genotype A_A** (highest response)): −3.67 | mean of change in PANSS-N (SNP_A-2274533 (LZTS1) genotype A_B): −1.52 | mean of change in PANSS-N (SNP_A-2274533 (LZTS1) genotype B_B): −1.16 | mean of change in PANSS-N (SNP_A-2274533 (LZTS1) genotype nonAA* (lowest response)): −1.44 | mean of change in PANSS-N (SNP_A-2283283 (XKR4) genotype A_A* (lowest response)): −0.95 | mean of change in PANSS-N (SNP_A-2283283 (XKR4) genotype A_B): −3.20 | mean of change in PANSS-N (SNP_A-2283283 (XKR4) genotype B_B): −3.62 | mean of change in PANSS-N (SNP_A-2283283 (XKR4) genotype nonAA** (highest response)): −3.37 | mean of change in PANSS-N (SNP_A-2284243 (GRIA4) genotype A_A): −3.70 | mean of change in PANSS-N (SNP_A-2284243 (GRIA4) genotype A_B): −3.46 | mean of change in PANSS-N (SNP_A-2284243 (GRIA4) genotype B_B* (lowest response)): −0.52 | mean of change in PANSS-N (SNP_A-2284243 (GRIA4) genotype nonBB** (highest response)): −3.55 | mean of change in PANSS-N (SNP_A-4204396 (CDH13) genotype A_A): −3.22 | mean of change in PANSS-N (SNP_A-4204396 (CDH13) genotype A_B): −3.12 | mean of change in PANSS-N (SNP_A-4204396 (CDH13) genotype B_B* (lowest response)): 1.62 | mean of change in PANSS-N (SNP_A-4204396 (CDH13) genotype nonBB** (highest response)): −3.18 | mean of change in PANSS-N (SNP_A-4212785 (PPP1R3B) genotype A_A* (lowest response)): 4.72 | mean of change in PANSS-N (SNP_A-4212785 (PPP1R3B) genotype A_B): −3.06 | mean of change in PANSS-N (SNP_A-4212785 (PPP1R3B) genotype B_B): −3.11 | mean of change in PANSS-N (SNP_A-4212785 (PPP1R3B) genotype nonAA** (highest response)): −3.09 | mean of change in PANSS-N (SNP_A-4230979 (ASB3) genotype A_A): −1.72 | mean of change in PANSS-N (SNP_A-4230979 (ASB3) genotype A_B): −2.02 | mean of change in PANSS-N (SNP_A-4230979 (ASB3) genotype B_B** (highest response)): −4.23 | mean of change in PANSS-N (SNP_A-4230979 (ASB3) genotype nonBB* (lowest response)): −1.96 | mean of change in PANSS-N (SNP_A-4256833 (MLCK) genotype A_A): −3.58 | mean of change in PANSS-N (SNP_A-4256833 (MLCK) genotype A_B* (lowest response)): −0.86 | mean of change in PANSS-N (SNP_A-4256833 (MLCK) genotype B_B): −3.69 | mean of change in PANSS-N (SNP_A-4256833 (MLCK) genotype nonAB** (highest response)): −3.68 | mean of change in PANSS-N (SNP_A-4258279 (RRM1) genotype A_A): −2.57 | mean of change in PANSS-N (SNP_A-4258279 (RRM1) genotype A_B* (lowest response)): −1.09 | mean of change in PANSS-N (SNP_A-4258279 (RRM1) genotype B_B): −3.34 | mean of change in PANSS-N (SNP_A-4258279 (RRM1) genotype nonAB** (highest response)): −3.33

— patent publication US9080214B2, “Genetic markers for efficacy of iloperidone in the treatment of psychotic symptoms” (Vanda Pharmaceuticals, Inc., priority 2007, dated 2015)
